Source: paper PMC3747139 (PLoS ONE, 2013)
Several values for one entry are separate records, joined by “and”; a condition that tells them apart may be missing. Identical values can stand only once.

Legend:
[1] = system: A549; assay: Cell count assay (trypan blue); format: cell-based, human; details: for Number of viable cells after 24 h of ligand treatment: A549, 24 h; for Number of viable cells after 48 h of ligand treatment: A549, 48 h;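 as to Number of viable cells after 24 h of ligand treatment: each ligand tested at its own IC50 concentration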
Description: (§1) Normal and tumor cell lines were seeded at 20000–40000 cells/cm^2 with 0.2 mL/cm^2 media and incubated for 48 h at 37°C, 6% CO2, 95% relative humidity. […] After 24 h and 48 h of incubation, cells were washed with 300 µl PBS or 0.02% EDTA, trypsinized, followed by harvesting at 37°C. 200 µl cell suspension was transferred into 1.5 ml microcentrifuge tube. To the cell suspension, 300 µl PBS followed by 500 µl of 0.4% trypan blue solution was added. To get the homogenised solution, the microcentrifuge tube was gently tapped for 5 min, 20 µl of cell suspension was loaded in to a chamber of the haemocytometer.

[2] = system: B16F10; assay: Cell count assay (trypan blue); format: cell-based, human; details: for Number of viable cells after 24 h of ligand treatment: B16F10, 24 h; for Number of viable cells after 48 h of ligand treatment: B16F10, 48 h
Description: as §1

[3] = system: MCF-7; assay: Cell count assay (trypan blue); format: cell-based, human; details: for Number of viable cells after 24 h of ligand treatment: MCF-7, 24 h; for Number of viable cells after 48 h of ligand treatment: MCF-7, 48 h;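 as to Number of viable cells after 48 h of ligand treatment: each ligand tested at its own IC50 concentration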
Description: as §1

[4] = system: B16F10 cells; assay: Flow cytometry cell cycle analysis (PI); format: cell-based, human; details: for cells in G0/G1 phase / cells in G2/M phase / cells in S phase / cells in Sub G1 phase: 200 µM L1, 125 µM L2, 50 µM L3, 3 h
Description: (§2) Since MTT and cell culture assays yielded encouraging results with B16F10 cells they were used for confocal and flow cytometry experiments. After 90% confluence, the cells were treated with 200 µM, 125 µM and 50 µM of L1, L2, L3 respectively, for 3 h. 1×10^6 cells were washed with 2× binding buffer and resuspended in 100 µl binding buffer and Annexin-V-FITC (1.0 µg). The cells were then incubated at room temperature for 10 min, followed by the addition of 400 µl of binding buffer containing 1 µl of Propidium Iodide (PI). Stained cells were analyzed using FACS Calibur Flow Cytometer from B.D. Biosceinces (USA). Annexin-V-FITC and PI labelled cells were excited using 488 nm solid-state laser and fluorescence emission intensity was captured using 530/30 and 585/42 band pass filters respectively.

[5] = system: B16F10 cells; assay: Flow cytometry Annexin V / PI dot plot; format: cell-based, human; details: 200 µM L1, 125 µM L2, 50 µM L3, 3 h
Description: as §2

[6] = system: B16F10 melanoma cells; assay: Preclinical study: tumor size in tumor-induced mice; format: in vivo; details: C57BL6/J mice with B16F10 tumor; 200 µM L1, 125 µM L2, 50 µM L3; end of experiment
Description: C57BL6/J mice were used from the animal house facility located at CCMB (Hyderabad, India). All animal experimental studies were carried out in strict accordance with the recommendations in the guide for the care and use of laboratory animals of Centre for Cellular and Molecular Biology (CCMB). All the animal experimental protocols were approved by the Institutional Animal Ethical Committee (IAEC) of Centre for Cellular and Molecular Biology (CCMB with Permit number: CPCSEA 20/1999, Ministry of Environment and Forest, Government of India).The protocol was approved by the Institutional Animal Ethical Committee (IAEC) of CCMB (Protocol number: IAEC 16/2012). All the surgery was performed under sodium pentobarbital anaesthesia, and all efforts were made to minimize suffering. C57BL6/J mice, 6–8 weeks old, were subcutaneously injected with 2×10^5 B16F10 melanoma cells, in the […] region. After the tumor attained a size of 500–1000 mm^3 (≈9 days following cancer cell implantation), mice were grouped and treated as follows.
Group (i) was treated with vehicle control (4 mice), group (ii) with 200 µM of L1 (4 mice), group (iii) with 125 µM of L2 (4 mice) and group (iv) with 50 µM of L3 (4 mice). These experiments were repeated thrice and mean values were considered. Size of tumor was measured every day at a fixed time. The tumor sizes were calculated using the formula (0.5 ab^2), where ‘a’ was the largest dimension and ‘b’ was the smallest dimension of the tumor. The experiment was terminated when the average tumor volume of the control/treated group was 10000–12000 mm^3.

[7] = system: QF DNA; assay: Stop assay (inhibition of in vitro DNA synthesis) with QF DNA; format: biochemical; details: for ligand concentration range of complete / maximum inhibition of DNA synthesis: 5 µM QF DNA; for percentage of DNA synthesis inhibition with QF DNA: at the respective half maximal inhibitory concentration; for Ki: competitive inhibition against dNTPs, Taq polymerase, read-out: inhibition constant (Ki), Cheng-Prusoff equation
Description: The G-quadruplex structure forming region of QF oligonucleotide is shown in bold letters.
To the PCR reaction mixture (25 µl) containing 10 mM Tris-HCl, pH 8.3, with 50 mM KCl, 1.5 mM Mg(OAc)2, 5 µM of each oligonucleotide, 1 mM dNTPs, 5 units of Taq polymerase, L1, L2, L3 were added at various concentrations (50 µM, 100 µM, 150 µM, 200 µM), and PCR reactions were performed. PCR mixture without any ligand was considered as control. The primers were 5′ end-labelled with [γ-^32P] ATP using 1 µl of polynucleotide kinase and 5 µl of 10× kinase buffer and the contents were incubated at 37°C for 5 min. Stop assay was performed using an ABI thermal cycler. Initial denaturation was done at 94°C for 3 min, followed by 20 repeated cycles each having 94°C for 30 sec, 58°C for 30 sec, and 72°C for 30 sec. After PCR, 5 µl of the amplified product was loaded on a 12% non-denaturing polyacrylamide gel with 1×TBE. The in vitro DNA synthetic band intensity was measured using Bio Rad Gel Doc XR+system (USA). The band intensity of the PCR product obtained with no ligand was taken as control for all the quadruplex forming DNA samples (QF DNA). Percentage of DNA synthesis inhibition was calculated using equation 1, whereas, inhibition constant, Ki (using Cheng-Prusoff equation) for each ligand was calculated by using equation 2. [drawing 2] (1)

[8] = system: HQF DNA d(TTAGGG)4; assay: Isothermal titration calorimetry; format: binding, human; details: ITC; for K1 x 10^-7 / K2 x 10^-5: two-sites model, 100 mM KBPES pH 7.0; for K1 x 10^-7: mode-1, 25°C; for K2 x 10^-5: mode-2, 25°C; for Kd: quadruplex DNA, read-out: Kd, higher affinity interaction (mode-1)
Description: When quadruplex DNA melts to form ssDNA structure, SG fluorescence intensity gradually reduces as SG has no binding to ssDNA. Each time, 5 µM of HQF DNA [d(T2AG3)4)], 5 µM of dsDNA (prepared by mixing equal concentration of poly-dA-dT and poly-dT-dA), 5 µM ssDNA ( poly dT alone) and 1 µM of each ligand was incubated at 4°C for 16 h, and used for melting studies. […] Affinity, stoichiometry and thermodynamic parameters for quadruplex-ligand complex were studied with 60 µM of ligand and 10 µM of HQF DNA using Microcal VP-ITC (Northampton, MA, USA). Ligand addition to G-quadruplex DNA was made every 180 seconds. Titration experiments were performed thrice and blank correction was made each time to minimize error.
On integrating the heats produced per injection, with respect to time and conversion to per mole basis, the binding isotherm (Figure 8A) corresponding to each ligand was obtained. […] After making blank correction, the heat data was fitted with “two-independent sites” model and analyzed using Origin 7.1 to calculate thermodynamic parameters.

SMILES | Number of viable cells after 24 h of ligand treatment [1] | Number of viable cells after 48 h of ligand treatment [1] | Number of viable cells after 24 h of ligand treatment [2] | Number of viable cells after 48 h of ligand treatment [2] | Number of viable cells after 24 h of ligand treatment [3] | Number of viable cells after 48 h of ligand treatment [3] | cells in G0/G1 phase [4] | cells in G2/M phase [4] | cells in S phase [4] | cells in Sub G1 phase [4] | Cells Alive [5] [%] | Early apoptotic [5] [%] | Late apoptotic [5] [%] | Necrotic [5] [%] | Total apoptotic cells [5] [%] | tumor size [6] | ligand concentration range of complete / maximum inhibition of DNA synthesis [7] [µM] | percentage of DNA synthesis inhibition with QF DNA [7] [%] | Ki [7] [nM] | K2 x 10^-5 [8] | further results
Cc1cn([C@H]2C[C@H](N=[N+]=[N-])[C@@H](CO)O2)c(=O)[nH]c1=O [Ligand L1, 1-(4-azido 5-(hydroxylmethyl)tetrahydrofuran-2-yl)-5-methyl pyrimidi-ne-2,4(1H,3H)-dione, reference compound] | + (Viable cells in the range of 80%–90%) | ++ (Viable cells in the range of 50%–60%) | ++ (Viable cells in the range of 50%–60%) | +++ (Viable cells which are equal or less than 30%) | + (Viable cells in the range of 80%–90%) | ++ (Viable cells in the range of 50%–60%) | 26.94% | 5.58% and 05.58% | 06.38% | 61.10% | 68.78 | 02.61 | 12.05 | 16.56 | 14.66 | 6000–8000 mm^3 | 150 to 200 | 84 | 2940 | 2.14 (± 0.2) | K1 x 10^-7 [8]: 0.72 (± 0.3)
Cc1cn([C@H]2C[C@H](n3cc(-c4ccccc4)nn3)[C@@H](CO)O2)c(=O)[nH]c1=O [Ligand L2] | ++/++ (Viable cells in the range of 50%–60%) | ++/++ (Viable cells in the range of 50%–60%) | ++ (Viable cells in the range of 50%–60%) | +++ (Viable cells which are equal or less than 30%) | + (Viable cells in the range of 80%–90%) | ++ (Viable cells in the range of 50%–60%) | 07.78% | 1.93% and 01.93% | 8.77% and 08.77% | 81.5% and 81.52% | 22.88 | 04.82 | 19.07 | 53.23 | 23.89 | 6000–8000 mm^3 | 150 to 200 | 91 | 1840 | 2.61 (± 0.3) | Kd [8]: ~100 nM; K1 x 10^-7 [8]: 1.35 (± 0.1)
Cc1cn([C@H]2C[C@H](n3cc(-c4ccc(Cl)cc4)nn3)[C@@H](CO)O2)c(=O)[nH]c1=O [Ligand L3, 1-(4-(4-(4-chlorophenly)-1H-1,2,3-triazole-1-yl)-5-(hydroxymethyl)tetrahydrofuran-2-yl)-5-methylpyrimidine-2,3(1H,3H)-dione] | ++ (Viable cells in the range of 50%–60%) | +++ (Viable cells which are equal or less than 30%) | ++ (Viable cells in the range of 50%–60%) | +++ (Viable cells which are equal or less than 30%) | ++/++ (Viable cells in the range of 50%–60%) | ++/++ (Viable cells in the range of 50%–60%) | 4.46% and 04.46% | 0.91% and 00.91% | 5.36% and 05.36% | 89.27% | 17.79 | 20.99 | 60.26 | 00.96 | 81.25 | ≈ 4500 mm^3 | 50 to 100 | 94 | 735 | 2.82 (±0.5) | subG1 cell population enhanced compared to other nucleoside ligands ([4]; L3 versus L1 and L2): 10–30%; Kd [8]: ~100 nM
